The text below walks through data of patent publication US20240018119A1, “CARBOXAMIDE DERIVATIVE AND PHARMACEUTICAL COMPOSITION COMPRISING SAME AS ACTIVE INGREDIENT FOR PREVENTING OR TREATING MENTAL ILLNESS” (DAEGU-GYEONGBUK MEDICAL INNOVATION FOUNDATION, priority 2020, published 2024).

The target of series [1] is T1, dopamine transporter (Homo sapiens, UniProt Q01959).
T1 construct: expressed in transfected cells; host or cells: HEK-293
Put plainly: Dopamine reuptake inhibition in transporter-transfected HEK-293 cells ([3H]-DA). The format is cell-based. To be noted: for IC50: concentration at which Ratio % is 50%, 6 concentrations 1 nM to 1 μM, read-out: Triple reuptake inhibition (IC50, μM) DAT. The procedure, abridged:
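HEK-293 cells transfected with human DAT cDNA; compound preincubated 15 min at 37 °C in uptake buffer, then buffer containing 20-30 nM [3H]-DA added for 5 min at 37 °C. After ice-cold washes and SDS lysis, radioactivity expressed as % of untreated control; IC50 from six concentrations (1 nM–1 μM).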

Series [2] deals with T2, serotonin transporter (Homo sapiens, UniProt P31645).
T2 construct: expressed in transfected cells; host or cells: HEK-293
In words: Serotonin reuptake inhibition in transporter-transfected HEK-293 cells ([3H]-5-HT). The format is cell-based. To be noted: for IC50: concentration at which Ratio % is 50%, 6 concentrations 1 nM to 1 μM, read-out: Triple reuptake inhibition (IC50, μM) SERT.

Series [3] deals with male ICR mice. Put plainly: Evaluation on causing sleep disorder, pentobarbital sodium-induced sleep in mice. The format is in vivo. The conditions noted are these: then pentobarbital sodium 42 mg/kg i.p.; for sleep onset time: vehicle about 225 seconds; for sleep duration: vehicle about 2100 seconds. Here is the method:
In order to evaluate the causing of sleep disorder or not as the side effect of the compound of Example 35, Example 66 according to the present invention or Comparative Example 1, an experiment was performed as follows, and the results are shown in FIG. 2. Pentobarbital sodium is a drug inducing sleep, and by observing the behavior of sleep-induced animals using the drug, the causing of sleep disorder or not can be evaluated. In addition, caffeine is well-known as a drug causing sleep disorder, and diazepam is well-known as a sleeping pill having sleep retention effect.
As experimental animals, male ICR mice of 3 weeks old were prepared and, 8 mice per group were prepared. A vehicle taking only water, groups intraperitoneally administered once a day for 5 days with 10 mg/kg of caffeine, 2 mg/kg of diazepam, 10 mg/kg of Comparative Example 1, and 10 mg/kg of Example 35 and 10 mg/kg of Example 66, were prepared. […], 42 mg/kg of pentobarbital sodium was intraperitoneally administered to the mice of each group to Induce sleep.
After treatment with pentobarbital sodium, if a mouse was turned upside down showing Its belly, it was considered sleep, and if a mouse changed posture while showing its back, it was considered to wake up completely. Sleep onset time and sleep duration were confirmed.

For series [4], the system named is male ICR mice. Put plainly: Hyperactivity inhibitory effect, open field test (EthoVision) in MK801-treated mice. Format: in vivo. To be noted: 5 mg/kg intraperitoneally 30 minutes before MK801 0.15 mg/kg i.p.; for distance moved: observed 15 minutes, vehicle about 7000 cm, MK801 only about 14000 cm; for movement duration: vehicle about 880 s, MK801 only about 1070 s. On the procedure:
In order to evaluate the hyperactivity inhibitory effect of the compounds of Example 35 and Example 66 according to the present invention or Comparative Example 1, an experiment was performed as follows, and the results are shown in FIG. 1. An open field test is an experimental method utilized for searching for excess and decline in motor function, calmness, excitement, avoidance degree and toxicity.
The observation of the hyperactivity and behavior analysis of animals were conducted using an EthoVisiorn System (Noldus IT b.v., Netherlands) that is a type of an open field test. The animals used for the experiment were male ICR mice of 4 weeks old. To induce hyperactivity, animal models intraperitoneally administered with 0.15 mg/kg of MK801 (drug name: dizocilpine) were used, and the compounds of Example 35, example 66 or Comparative Example 1 was intraperitoneally administered by 5 mg/kg, 30 minutes ago the administration of MK801. Male ICP mice administered with 10% DMSO and 10% Tween-80 as the solvents dissolving a drug were considered a vehicle, and male ICR mice administered with MK801 […] with the Example Compound or Comparative Compound were considered a positive control. After that, in the center of a test box (40×40×30 cm) manufactured using black acryl, the mice under test were put and allowed to fit for 15 minutes, and behavior patterns were observed, recorded and analyzed for 15 minutes. Comparative analysis was conducted by measuring distance moved and movement duration.

The target in series [5] is T3, norepinephrine transporter (Homo sapiens, UniProt P23975).
T3 construct: expressed in transfected cells; host or cells: HEK-293
In words: Norepinephrine reuptake inhibition in transporter-transfected HEK-293 cells ([3H]-NE). Format: cell-based. To be noted: for IC50: concentration at which Ratio % is 50%, 6 concentrations 1 nM to 1 μM, read-out: Triple reuptake inhibition (IC50, μM) NET.

Setting [6] is: 10 mg/kg intraperitoneally once a day for 5 days.
Where [7] appears, read: 2 mg/kg intraperitoneally once a day for 5 days.

T3 sequence (P23975 whole entry, species assumed): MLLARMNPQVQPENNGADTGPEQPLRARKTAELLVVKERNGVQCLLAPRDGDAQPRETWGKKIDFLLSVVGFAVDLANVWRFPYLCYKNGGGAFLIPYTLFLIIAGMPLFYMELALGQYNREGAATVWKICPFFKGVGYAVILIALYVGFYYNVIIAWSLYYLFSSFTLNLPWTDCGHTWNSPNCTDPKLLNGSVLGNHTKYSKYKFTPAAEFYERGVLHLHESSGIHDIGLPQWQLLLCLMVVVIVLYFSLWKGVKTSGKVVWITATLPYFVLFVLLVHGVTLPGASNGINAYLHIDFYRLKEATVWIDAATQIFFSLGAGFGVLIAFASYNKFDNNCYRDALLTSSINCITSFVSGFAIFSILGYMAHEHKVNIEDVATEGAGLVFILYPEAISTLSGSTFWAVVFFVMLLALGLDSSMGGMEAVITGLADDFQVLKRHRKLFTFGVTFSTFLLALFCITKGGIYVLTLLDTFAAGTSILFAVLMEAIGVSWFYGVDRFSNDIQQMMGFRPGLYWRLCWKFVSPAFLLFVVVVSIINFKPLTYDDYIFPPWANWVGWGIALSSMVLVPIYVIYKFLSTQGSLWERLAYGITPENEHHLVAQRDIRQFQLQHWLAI
T1 sequence (Q01959 whole entry): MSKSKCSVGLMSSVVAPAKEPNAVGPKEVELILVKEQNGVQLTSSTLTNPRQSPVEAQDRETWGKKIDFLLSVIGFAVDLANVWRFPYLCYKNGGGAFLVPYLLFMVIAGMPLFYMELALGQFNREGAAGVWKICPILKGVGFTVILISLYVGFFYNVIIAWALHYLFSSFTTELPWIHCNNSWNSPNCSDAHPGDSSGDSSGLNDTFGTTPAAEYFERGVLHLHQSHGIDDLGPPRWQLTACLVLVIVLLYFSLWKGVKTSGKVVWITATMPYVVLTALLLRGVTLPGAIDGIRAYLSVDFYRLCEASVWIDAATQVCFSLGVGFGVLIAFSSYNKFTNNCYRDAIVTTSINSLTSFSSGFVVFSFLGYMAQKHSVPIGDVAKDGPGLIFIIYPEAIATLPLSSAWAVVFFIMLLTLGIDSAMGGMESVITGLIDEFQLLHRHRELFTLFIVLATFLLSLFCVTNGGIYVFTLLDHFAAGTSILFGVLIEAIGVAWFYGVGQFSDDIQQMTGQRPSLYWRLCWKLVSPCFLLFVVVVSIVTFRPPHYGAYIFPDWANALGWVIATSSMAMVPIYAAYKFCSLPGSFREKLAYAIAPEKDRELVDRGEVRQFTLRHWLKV
T2 sequence (P31645 whole entry): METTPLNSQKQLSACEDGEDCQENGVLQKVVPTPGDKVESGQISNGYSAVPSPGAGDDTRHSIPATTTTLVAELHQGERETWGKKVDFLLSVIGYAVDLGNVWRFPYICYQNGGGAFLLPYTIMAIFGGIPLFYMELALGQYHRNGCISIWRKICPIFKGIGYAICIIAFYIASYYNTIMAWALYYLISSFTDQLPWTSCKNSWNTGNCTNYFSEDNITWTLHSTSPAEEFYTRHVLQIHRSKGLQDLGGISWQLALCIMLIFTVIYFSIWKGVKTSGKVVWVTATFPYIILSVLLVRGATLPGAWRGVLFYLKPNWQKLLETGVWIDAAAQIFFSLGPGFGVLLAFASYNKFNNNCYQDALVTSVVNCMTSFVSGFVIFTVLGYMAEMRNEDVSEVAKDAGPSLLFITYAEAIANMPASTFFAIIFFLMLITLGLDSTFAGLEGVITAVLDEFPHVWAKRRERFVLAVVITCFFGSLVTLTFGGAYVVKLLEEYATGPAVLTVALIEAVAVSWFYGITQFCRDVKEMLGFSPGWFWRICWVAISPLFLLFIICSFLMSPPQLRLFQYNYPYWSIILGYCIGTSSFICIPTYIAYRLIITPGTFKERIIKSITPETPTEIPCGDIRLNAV

The term IC50 denotes the concentration that gives 50% inhibition. For `O=C(NCCN1CCC(Cc2ccccc2)CC1)c1cc2ccccc2[nH]1` [Comparative Example 1, N-(2-(4-benzylpiperidin-1-yl)ethyl)-1H-indol-2-carboxamide, reference compound], the IC50 in series [1] is 4.18 µM. Besides, the IC50 in series [2] stood at 5.35 µM. Besides, in series [3] (setting [6]), the “sleep disorder as side effect” value was “induced sleep disorder”, the sleep onset time entry was “about 300 seconds” and the sleep duration result is listed as “about 1100 seconds”. Further, in series [4], the “hyperactivity of the mice induced with MK801” value is listed as “not inhibited”, the distance moved result is listed as “about 13400 cm” and the movement duration entry is recorded as “about 1100 seconds”. The 50% inhibitory concentration (IC50) in series [5] is 0.524 µM.

For the compound `O=C(NCCN1CCC(Cc2ccccc2)CC1)c1cc2cc(O)ccc2[nH]1` [Example 66, N-(2-(4-benzylpiperidin-1-yl)ethyl)-5-hydroxy-1H-Indol-2-carboxamide], the “Triple reuptake inhibition (Ratio %) DAT” value in series [1] (compound 1 μM, 20-30 nM [3H]-DA, relative to control without compound (100%), lower = more inhibition) is 8.78%. In series [1], the IC50 is 0.036 µM. The “Triple reuptake inhibition (Ratio %) SERT” value in series [2] (compound 1 μM, [3H]-5-HT, relative to control without compound (100%), lower = more inhibition) is 38.79%. Further, in series [2], the IC50 was 0.265 µM. In addition, in series [4], the “hyperactivity of the mice induced with MK801” value is on record as “significantly inhibited”, the distance moved result is on record as “about 8600 cm” and the movement duration entry is on record as “about 880 seconds”. The “Triple reuptake inhibition (Ratio %) NET” value in series [5] (compound 1 μM, [3H]-NE, relative to control without compound (100%), lower = more inhibition) is recorded as 21.59%. Besides, in series [5], the IC50 is 0.167 µM.

On to `CN1C(=O)CN=C(c2ccccc2)c2cc(Cl)ccc21` [diazepam], for which, in series [3] (setting [7]), the sleep onset time result is “about 170 seconds” and the sleep duration entry is given as “about 2900 seconds”.
